Data set [1] is described as follows: Drug accumulation in human NCI-H292 cells at 3 to 10 uM incubated for 3 hrs by LC-MS analysis relative to azithromycin. To be noted: nci-h292, 3 h. The data set is classed as ADME, cell-based.
Data set [2] in a line: Chromatographic hydrophobicity, logD of the compound at pH 7.4 by fast-gradient RP-HPLC method. To be noted: buffer. The data set is classed as physicochemical.

Among the data in ChEMBL document CHEMBL4265872, “Around the macrolide - Impact of 3D structure of macrocycles on lipophilicity and cellular accumulation” (Eur J Med Chem, 2017) are Drug uptake and chromatographic logD values, retold here.

Each structure is given as a SMILES string.

The compound `CC[C@H]1OC(=O)[C@H](C)[C@@H](OCCCNC(=O)c2c(C)nn(C)c2Cl)[C@H](C)[C@@H](O[C@@H]2O[C@H](C)C[C@H](N(C)C)[C@H]2O)[C@](C)(O)C[C@@H](C)CN(C)[C@H](C)[C@@H](O)[C@]1(C)O` gave a Drug uptake in data set [1] of 59%.
What is called chromatographic logD is lipophilicity estimated from chromatographic retention. High values mean a more lipophilic compound, low ones a more hydrophilic compound. Consider `CC[C@H]1OC(=O)[C@H](C)[C@@H](O)[C@H](C)[C@@H](O)[C@](C)(O)C[C@@H](C)CN(C)[C@H](C)[C@@H](O)[C@]1(C)O` [AZITHROMYCIN AGLYCONE], for which the chromatographic logD in data set [2] stood at 1.29. In data set [1], this compound showed a Drug uptake of 13%.
The matching figures for `CCC(=O)NCCCO[C@H]1[C@H](O[C@@H]2[C@@H](C)[C@H](O[C@H]3C[C@@](C)(OC)[C@@H](O)[C@H](C)O3)[C@@H](C)C(=O)O[C@H](CC)[C@@](C)(O)[C@H](O)[C@@H](C)N(C)C[C@H](C)C[C@@]2(C)O)O[C@H](C)C[C@@H]1N(C)C`: 2.7 and 41%.
The matching figures for `CC[C@H]1OC(=O)[C@H](C)[C@@H](O)[C@H](C)[C@@H](O[C@@H]2O[C@H](C)C[C@H](N(C)C)[C@H]2O)[C@](C)(OC)C[C@@H](C)/C(=N\O)[C@H](C)[C@@H](O)[C@]1(C)O`: 2.31 and 17%.
The matching figures for `CC[C@H]1OC(=O)[C@H](C)[C@@H](O[C@H]2C[C@@](C)(OC)[C@@H](O)[C@H](C)O2)[C@H](C)[C@@H](O[C@@H]2O[C@H](C)C[C@H](N(C)C)[C@H]2OCCCNC(=O)c2c(C)nn(C)c2Cl)[C@](C)(O)C[C@@H](C)CN(C)[C@H](C)[C@@H](O)[C@]1(C)O`: 3.08 and 95%.
For `CCC(=O)NCCCN1C[C@H](C)C[C@@](C)(O)[C@H](O[C@@H]2O[C@H](C)C[C@H](N(C)C)[C@H]2O)[C@@H](C)[C@H](O[C@H]2C[C@@](C)(OC)[C@@H](O)[C@H](C)O2)[C@@H](C)C(=O)O[C@H](CC)[C@@](C)(O)[C@H](O)[C@H]1C`, the chromatographic logD in data set [2] amounted to 1.86. Besides, in data set [1], the Drug uptake worked out at 0%.
`CCCCCCCC(=O)NCCCN(C)[C@H]1C[C@@H](C)O[C@@H](O[C@@H]2[C@@H](C)[C@H](O)[C@@H](C)C(=O)O[C@H](CC)[C@@](C)(O)[C@H](O)[C@@H](C)N(C)C[C@H](C)C[C@@]2(C)O)[C@@H]1O`: in data set [2], the chromatographic logD stood at 4.84. Besides, the Drug uptake in data set [1] came out at 226%.
The corresponding values for `CC[C@H]1OC(=O)[C@H](C)[C@@H](O[C@H]2C[C@@](C)(OC)[C@@H](O)[C@H](C)O2)[C@H](C)[C@@H](O[C@@H]2O[C@H](C)C[C@H](N(C)C)[C@H]2O)[C@](C)(OC)C[C@@H](C)C(=O)N[C@H](C)[C@@H](O)[C@]1(C)O` are 2.41 and 10%.
On to `CC[C@H]1OC(=O)[C@H](C)[C@@H](O[C@H]2C[C@@](C)(OC)[C@@H](O)[C@H](C)O2)[C@H](C)[C@@H](O[C@@H]2O[C@H](C)C[C@H](N(C)C)[C@H]2O)[C@](C)(OC)C[C@@H](C)/C(=N\O)[C@H](C)[C@@H](O)[C@]1(C)OCCCNC(C)=O`, for which the chromatographic logD in data set [2] is 2.94. This compound gave a Drug uptake in data set [1] of 9%.
The corresponding values for `CC[C@H]1OC(=O)[C@H](C)[C@@H](O[C@H]2C[C@@](C)(OC)[C@@H](OCCCNC(C)=O)[C@H](C)O2)[C@H](C)[C@@H](O[C@@H]2O[C@H](C)C[C@H](N(C)C)[C@H]2O)[C@](C)(OC)C[C@@H](C)C(=O)[C@H](C)[C@@H](O)[C@]1(C)O` are 3.08 and 30%.
The matching figures for `CCCCC(=O)NCCCN1C[C@H](C)C[C@@](C)(O)[C@H](O[C@@H]2O[C@H](C)C[C@H](N(C)C)[C@H]2O)[C@@H](C)[C@H](O[C@H]2C[C@@](C)(OC)[C@@H](O)[C@H](C)O2)[C@@H](C)C(=O)O[C@H](CC)[C@@](C)(O)[C@H](O)[C@H]1C`: 2.72 and 7%.
The matching figures for `CCCCCCCC(=O)NCCCN(C)[C@H]1C[C@@H](C)O[C@@H](O[C@@H]2[C@@H](C)[C@H](O[C@H]3C[C@@](C)(OC)[C@@H](O)[C@H](C)O3)[C@@H](C)C(=O)O[C@H](CC)[C@@](C)(O)[C@H](O)[C@@H](C)C(=O)[C@H](C)C[C@@]2(C)OC)[C@@H]1O`: 6.44 and 363%.
`CC[C@H]1OC(=O)[C@H](C)[C@@H](O[C@H]2C[C@@](C)(OC)[C@@H](O)[C@H](C)O2)[C@H](C)[C@@H](O[C@@H]2O[C@H](C)C[C@H](N(C)C)[C@H]2O)[C@](C)(OC)C[C@@H](C)C(=O)[C@H](C)[C@@H](OCCCNC(C)=O)[C@]1(C)O` had a chromatographic logD in data set [2] of 2.72. Besides, the Drug uptake in data set [1] is 11%.
For the compound `CC[C@H]1OC(=O)[C@H](C)[C@@H](O[C@H]2C[C@@](C)(OC)[C@@H](OCCCNC(=O)c3c(C)nn(C)c3Cl)[C@H](C)O2)[C@H](C)[C@@H](O[C@@H]2O[C@H](C)C[C@H](N(C)C)[C@H]2O)[C@](C)(O)C[C@@H](C)CN(C)[C@H](C)[C@@H](O)[C@]1(C)O`, the chromatographic logD in data set [2] was determined as 2.52. Moreover, the Drug uptake in data set [1] is on record as 60%.
`CC[C@H]1OC(=O)[C@H](C)[C@@H](O)[C@H](C)[C@@H](O[C@@H]2O[C@H](C)C[C@H](N(C)C)[C@H]2O)[C@](C)(O)C[C@@H](C)CN(C)[C@H](C)[C@@H](O)[C@]1(C)O` [DESCLADINOSYL AZITHROMYCIN]: in data set [2], the chromatographic logD came out at 1.35. The compound also returned a Drug uptake in data set [1] of 56%.
As for `CC[C@H]1OC(=O)[C@H](C)[C@@H](O[C@H]2C[C@@](C)(OC)[C@@H](OCCCNC(=O)COC)[C@H](C)O2)[C@H](C)[C@@H](O[C@@H]2O[C@H](C)C[C@H](N(C)C)[C@H]2O)[C@](C)(O)C[C@@H](C)CN(C)[C@H](C)[C@@H](O)[C@]1(C)O`, the chromatographic logD in data set [2] turned out to be 2.16. In data set [1], this compound gave a Drug uptake of 9%.
Regarding `CC[C@H]1OC(=O)[C@H](C)[C@@H](O[C@H]2C[C@@](C)(OC)[C@@H](O)[C@H](C)O2)[C@H](C)[C@@H](O[C@@H]2O[C@H](C)C[C@H](N(C)C)[C@H]2OCCCNC(=O)C2CCC2)[C@](C)(O)C[C@@H](C)CN(C)[C@H](C)[C@@H](O)[C@]1(C)O`, the chromatographic logD in data set [2] was determined as 3.16. The compound further came in with a Drug uptake in data set [1] of 124%.
The corresponding values for `CCCCC(=O)NCCCN(C)[C@H]1C[C@@H](C)O[C@@H](O[C@@H]2[C@@H](C)[C@H](O[C@H]3C[C@@](C)(OC)[C@@H](O)[C@H](C)O3)[C@@H](C)C(=O)O[C@H](CC)[C@@](C)(O)[C@H](O)[C@@H](C)N(C)C[C@H](C)C[C@@]2(C)O)[C@@H]1O` are 3.08 and 75%.
The matching figures for `CC[C@H]1OC(=O)[C@H](C)[C@@H](O[C@H]2C[C@@](C)(OC)[C@@H](O)[C@H](C)O2)[C@H](C)[C@@H](O[C@@H]2O[C@H](C)C[C@H](N(C)C)[C@H]2O)[C@](C)(O)C[C@@H](C)CN(CCCNC(=O)c2c(C)nn(C)c2Cl)[C@H](C)[C@@H](O)[C@]1(C)O`: 2.2 and 5%.
The corresponding values for `CC[C@H]1OC(=O)[C@H](C)[C@@H](O[C@H]2C[C@@](C)(OC)[C@@H](O)[C@H](C)O2)[C@H](C)[C@@H](O[C@@H]2O[C@H](C)C[C@H](N(C)C)[C@H]2O)[C@](C)(OC)C[C@@H](C)C(=O)[C@H](C)[C@@H](O)[C@]1(C)O` [CLARITHROMYCIN] are 3.5 and 35%.
For `CCCCCCCC(=O)NCCCN1C[C@H](C)C[C@@](C)(O)[C@H](O[C@@H]2O[C@H](C)C[C@H](N(C)C)[C@H]2O)[C@@H](C)[C@H](O)[C@@H](C)C(=O)O[C@H](CC)[C@@](C)(O)[C@H](O)[C@H]1C`, the chromatographic logD in data set [2] is 3.08. In data set [1], this compound came in with a Drug uptake of 80%.
`CC[C@H]1OC(=O)[C@H](C)[C@@H](O[C@H]2C[C@@](C)(OC)[C@@H](O)[C@H](C)O2)[C@H](C)[C@@H](O[C@@H]2O[C@H](C)C[C@H](N(C)C)[C@H]2O)[C@](C)(O)C[C@@H](C)CN(C)[C@H](C)[C@@H](OCCCNC(=O)c2c(C)nn(C)c2Cl)[C@]1(C)O` had a chromatographic logD in data set [2] of 3.01. Also, the Drug uptake in data set [1] was found to be 51%.
In turn, `CC[C@H]1OC(=O)[C@H](C)[C@@H](O[C@H]2C[C@@](C)(OC)[C@@H](O)[C@H](C)O2)[C@H](C)[C@@H](O[C@@H]2O[C@H](C)C[C@H](N(C)C)[C@H]2O)[C@](C)(O)C[C@@H](C)CN(C)[C@H](C)[C@@H](O)[C@]1(C)O` [AZITHROMYCIN] displayed a chromatographic logD in data set [2] of 2.11. Besides, the Drug uptake in data set [1] is 100%.
For the compound `CC[C@H]1OC(=O)[C@H](C)[C@@H](O[C@H]2C[C@@](C)(OC)[C@@H](O)[C@H](C)O2)[C@H](C)[C@@H](O[C@@H]2O[C@H](C)C[C@H](N(C)CCCNC(C)=O)[C@H]2O)[C@](C)(OC)C[C@@H](C)C(=O)[C@H](C)[C@@H](O)[C@]1(C)O`, the chromatographic logD in data set [2] turned out to be 3.08. The same compound returned a Drug uptake in data set [1] of 27%.
The corresponding values for `CCCCCCCC(=O)NCCCN1C[C@H](C)C[C@@](C)(O)[C@H](O[C@@H]2O[C@H](C)C[C@H](N(C)C)[C@H]2O)[C@@H](C)[C@H](O[C@H]2C[C@@](C)(OC)[C@@H](O)[C@H](C)O2)[C@@H](C)C(=O)O[C@H](CC)[C@@](C)(O)[C@H](O)[C@H]1C` are 3.74 and 207%.
The compound `CC[C@H]1OC(=O)[C@H](C)[C@@H](OCCCNC(=O)C2CCC2)[C@H](C)[C@@H](O[C@@H]2O[C@H](C)C[C@H](N(C)C)[C@H]2O)[C@](C)(O)C[C@@H](C)CN(C)[C@H](C)[C@@H](O)[C@]1(C)O` registered a chromatographic logD in data set [2] of 1.78. Also, the Drug uptake in data set [1] stood at 21%.
For the compound `CCCCCCCC(=O)NCCCN(C)[C@H]1C[C@@H](C)O[C@@H](O[C@@H]2[C@@H](C)[C@H](O[C@H]3C[C@@](C)(OC)[C@@H](O)[C@H](C)O3)[C@@H](C)C(=O)O[C@H](CC)[C@@](C)(O)[C@H](O)[C@@H](C)N(C)C[C@H](C)C[C@@]2(C)O)[C@@H]1O`, the chromatographic logD in data set [2] is 3.74. In addition, the Drug uptake in data set [1] is 457%.
In data set [1], `CC[C@H]1OC(=O)[C@H](C)[C@@H](O[C@H]2C[C@@](C)(OC)[C@@H](O)[C@H](C)O2)[C@H](C)[C@@H](O[C@@H]2O[C@H](C)C[C@H](N(C)C)[C@H]2O)[C@](C)(O)C[C@@H](C)CN(CCCNC(=O)COC)[C@H](C)[C@@H](O)[C@]1(C)O` came in with a Drug uptake of 2%.
